Measurements: US20230021483A1, “[…] […] METHOD AND CLASSIFICATION OF PHARMACEUTICAL COMPONENTS BY USING TRANSCRIPTOMES” (National Institutes of Biomedical Innovation, Health and …, priority 2016, published 2023)

Experiments:
[1] = tested on: preferentially upregulated genes in LV, SP, LN; assay: Z-score-based differential gene expression analysis (adjuvant group- or adjuvant-associated genes, 40 module mapping, TargetMine annotation); format: in vivo, C57BL/6 mice; conditions: for Pml 1456103_at (Group G1, Modules 20) / Rnf213 1455500_at (Group G1, Modules 20) / Rsad2 1436058_at (Group G1, Modules 20) / Shisa5 1423986_a_at (Group G1, Modules 20) / Shisa5 1437503_a_at (Group G1, Modules 20) / Stat1 1450033_a_at (Group G1, Modules 20) / Stat1 1450034_at (Group G1, Modules 20) / Tdrd7 1426716_at (Group G1, Modules 20) / Tor1aip2 1418115_s_at (Group G1, Modules 20) / Tor1aip2 1418116_at (Group G1, Modules 20) / Tor1aip2 1435526_at (Group G1, Modules 20) / Trim12a 1437432_a_at (Group G1, Modules 20) / Uba7 1426970_a_at (Group G1, Modules 20) / Adar 1425405_a_at (Group G1, Modules 20) / Adar 1434268_at (Group G1, Modules 20) / Ddx58 1436562_at (Group G1, Modules 20) / Ddx58 1456890_at (Group G1, Modules 20) / Eif2ak2 1422005_at (Group G1, Modules 20) / G3bp2 1421323_a_at (Group G1, Modules 20) / Gm9706///Isg15 1431591_s_at (Group G1, Modules 20) / H2-T10///H2-T22///H2-T9 1449875_s_at (Group G1, Modules 20) / Ifih1 1426276_at (Group G1, Modules 20) / Ifit1 1450783_at (Group G1, Modules 20) / Ifit3 1449025_at (Group G1, Modules 20) / Irf7 1417244_a_at (Group G1, Modules 20) / Irgm1 1418825_at (Group G1, Modules 20) / Mndal 1426906_at (Group G1, Modules 20) / Pml 1448757_at (Group G1, Modules 20): ID, LV
Summary of the method: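 Gene groups for each organ were built from combined z-score cutoffs across adjuvants, ranging from z>1 to z>3. Scores came from fold changes standardized per gene over the whole organ data set, with the three replicate z-scores added per adjuvant; sums above 3 marked preferential expression.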

LV, SP and LNs = assay: Whole organ transcriptome across organs (adjuvant gene space): gene responses and adjuvant grouping; format: in vivo, C57BL/6 mice; conditions: hierarchical clustering; LV, SP and/or LNs

Nc1nc2c(ncn2[C@@H]2O[C@@H]3COP(=O)(O)O[C@H]4[C@@H](O)[C@H](n5cnc6c(N)ncnc65)O[C@@H]4COP(=O)(O)O[C@@H]2[C@@H]3O)c(=O)[nH]1 [cGAMP, Cyclic [G(2′,5′)pA(3′,5′)p]]
Pml 1456103_at (Group G1, Modules 20) ([1]; sample x1): 1.62 | Rnf213 1455500_at (Group G1, Modules 20) ([1]; sample x1): 2.58 | Rsad2 1436058_at (Group G1, Modules 20) ([1]; sample x1): 2.08 | Shisa5 1423986_a_at (Group G1, Modules 20) ([1]; sample x1): 1.7 | Shisa5 1437503_a_at (Group G1, Modules 20) ([1]; sample x1): 1.57 | Stat1 1450033_a_at (Group G1, Modules 20) ([1]; sample x1): 3.11 | Stat1 1450034_at (Group G1, Modules 20) ([1]; sample x1): 2.46 | Tdrd7 1426716_at (Group G1, Modules 20) ([1]; sample x1): 2.18 | Tor1aip2 1418115_s_at (Group G1, Modules 20) ([1]; sample x1): 2.9 | Tor1aip2 1418116_at (Group G1, Modules 20) ([1]; sample x1): 2.41 | Tor1aip2 1435526_at (Group G1, Modules 20) ([1]; sample x1): 2.32 | Trim12a 1437432_a_at (Group G1, Modules 20) ([1]; sample x1): 2.07 | Uba7 1426970_a_at (Group G1, Modules 20) ([1]; sample x1): 2.06 | Adar 1425405_a_at (Group G1, Modules 20) ([1]; sample x2): 2.38 | Adar 1434268_at (Group G1, Modules 20) ([1]; sample x2): 1.71 | Ddx58 1436562_at (Group G1, Modules 20) ([1]; sample x2): 2.13 | Ddx58 1456890_at (Group G1, Modules 20) ([1]; sample x2): 2.28 | Eif2ak2 1422005_at (Group G1, Modules 20) ([1]; sample x2): 2.21 | G3bp2 1421323_a_at (Group G1, Modules 20) ([1]; sample x2): 2.6 | Gm9706///Isg15 1431591_s_at (Group G1, Modules 20) ([1]; sample x2): 1.62 | H2-T10///H2-T22///H2-T9 1449875_s_at (Group G1, Modules 20) ([1]; sample x2): 1.8 | Ifih1 1426276_at (Group G1, Modules 20) ([1]; sample x2): 1.62 | Ifit1 1450783_at (Group G1, Modules 20) ([1]; sample x2): 2.63 | Ifit3 1449025_at (Group G1, Modules 20) ([1]; sample x2): 1.95 | Irf7 1417244_a_at (Group G1, Modules 20) ([1]; sample x2): 1.62 | Irgm1 1418825_at (Group G1, Modules 20) ([1]; sample x2): 2.09 | Mndal 1426906_at (Group G1, Modules 20) ([1]; sample x2): 2.11 | Pml 1448757_at (Group G1, Modules 20) ([1]; sample x2): 2.02 | Pml 1456103_at (Group G1, Modules 20) ([1]; sample x2): 1.48 | Rnf213 1455500_at (Group G1, Modules 20) ([1]; sample x2): 2.34 | Rsad2 1436058_at (Group G1, Modules 20) ([1]; sample x2): 1.89 | Shisa5 1423986_a_at (Group G1, Modules 20) ([1]; sample x2): 1.43 | Shisa5 1437503_a_at (Group G1, Modules 20) ([1]; sample x2): 1.63 | Stat1 1450033_a_at (Group G1, Modules 20) ([1]; sample x2): 2.52 | Stat1 1450034_at (Group G1, Modules 20) ([1]; sample x2): 1.97 | Tdrd7 1426716_at (Group G1, Modules 20) ([1]; sample x2): 2.34 | Tor1aip2 1418115_s_at (Group G1, Modules 20) ([1]; sample x2): 2.68 | Tor1aip2 1418116_at (Group G1, Modules 20) ([1]; sample x2): 2.58 | Tor1aip2 1435526_at (Group G1, Modules 20) ([1]; sample x2): 2.28 | Trim12a 1437432_a_at (Group G1, Modules 20) ([1]; sample x2): 1.46 | Uba7 1426970_a_at (Group G1, Modules 20) ([1]; sample x2): 1.28 | Adar 1425405_a_at (Group G1, Modules 20) ([1]; sample x3): 2.37 | Adar 1434268_at (Group G1, Modules 20) ([1]; sample x3): 1.8 | Ddx58 1436562_at (Group G1, Modules 20) ([1]; sample x3): 2.6 | Ddx58 1456890_at (Group G1, Modules 20) ([1]; sample x3): 2.38 | Eif2ak2 1422005_at (Group G1, Modules 20) ([1]; sample x3): 2.73 | G3bp2 1421323_a_at (Group G1, Modules 20) ([1]; sample x3): 2.43 | Gm9706///Isg15 1431591_s_at (Group G1, Modules 20) ([1]; sample x3): 1.73 | H2-T10///H2-T22///H2-T9 1449875_s_at (Group G1, Modules 20) ([1]; sample x3): 2.45 | Ifih1 1426276_at (Group G1, Modules 20) ([1]; sample x3): 1.66 | Ifit1 1450783_at (Group G1, Modules 20) ([1]; sample x3): 2.63 | Ifit3 1449025_at (Group G1, Modules 20) ([1]; sample x3): 2.06 | Irf7 1417244_a_at (Group G1, Modules 20) ([1]; sample x3): 1.62 | Irgm1 1418825_at (Group G1, Modules 20) ([1]; sample x3): 2.14 | Mndal 1426906_at (Group G1, Modules 20) ([1]; sample x3): 2.19 | Pml 1448757_at (Group G1, Modules 20) ([1]; sample x3): 2.49 | Pml 1456103_at (Group G1, Modules 20) ([1]; sample x3): 1.62 | Rnf213 1455500_at (Group G1, Modules 20) ([1]; sample x3): 2.18 | Rsad2 1436058_at (Group G1, Modules 20) ([1]; sample x3): 1.75 | Shisa5 1423986_a_at (Group G1, Modules 20) ([1]; sample x3): 2.36 | Shisa5 1437503_a_at (Group G1, Modules 20) ([1]; sample x3): 2.09 | Stat1 1450033_a_at (Group G1, Modules 20) ([1]; sample x3): 2.85 | Stat1 1450034_at (Group G1, Modules 20) ([1]; sample x3): 2.26 | Tdrd7 1426716_at (Group G1, Modules 20) ([1]; sample x3): 2.5 | Tor1aip2 1418115_s_at (Group G1, Modules 20) ([1]; sample x3): 2.71 | Tor1aip2 1418116_at (Group G1, Modules 20) ([1]; sample x3): 2.68 | Tor1aip2 1435526_at (Group G1, Modules 20) ([1]; sample x3): 2.32 | Trim12a 1437432_a_at (Group G1, Modules 20) ([1]; sample x3): 1.61 | Uba7 1426970_a_at (Group G1, Modules 20) ([1]; sample x3): 1.91 | adjuvant group-associated biological features ([1]; z-score selected genes, TargetMine and IPA upstream cytokine analyses): strongly associated with type I and type II interferon responses | adjuvant group (cluster) within the adjuvant gene space (LV, SP and LNs): group (G) 1
